In patent publication US10874743B2, “IRAK degraders and uses thereof” (Kymera Therapeutics, Inc., priority 2017, dated 2020):

How the values were obtained:
IRAK4 [1] = molecular target: T1, IRAK4 (Homo sapiens, UniProt Q9NWZ3); experiment: OCI-LY-10 degradation assay (western blot, % IRAK4 degraded after 4 hours); format: cell-based; design: endogenous in cells; host or cells: OCI-LY10; details: OCI-LY10 cells
T1 sequence (Q9NWZ3 1-460): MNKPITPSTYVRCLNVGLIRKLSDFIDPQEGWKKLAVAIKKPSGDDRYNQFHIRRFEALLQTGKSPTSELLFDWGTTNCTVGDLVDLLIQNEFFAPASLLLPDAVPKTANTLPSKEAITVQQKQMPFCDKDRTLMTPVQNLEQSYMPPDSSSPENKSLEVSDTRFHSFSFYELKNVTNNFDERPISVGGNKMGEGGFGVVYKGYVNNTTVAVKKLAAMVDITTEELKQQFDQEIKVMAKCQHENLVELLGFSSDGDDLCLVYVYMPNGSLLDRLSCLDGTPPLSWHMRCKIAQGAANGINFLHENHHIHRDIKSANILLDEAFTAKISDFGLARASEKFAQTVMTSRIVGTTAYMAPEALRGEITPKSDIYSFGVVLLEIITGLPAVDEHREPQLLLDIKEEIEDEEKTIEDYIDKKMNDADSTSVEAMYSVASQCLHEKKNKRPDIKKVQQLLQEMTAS
In short: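 IRAK4 loss after 4 h at 37° C was scored A (>50%), B (>20-50%) or C (<20%) from infrared western blots of RIPA lysates, 20-25 μg protein per lane. Compound was applied at 0.003-10 μM final to OCI-LY10 cells cultured in RPMI-1640 with 20% FBS and 55 μM 2-ME.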

IRAK4 [2] = molecular target: T1, IRAK4; experiment: PBMC degradation assay (western blot, % IRAK4 degraded after 4 hours); format: cell-based; details: human PBMCs
Protocol: Protocol summary of PBMC degradation studies from compound treatment through quantitation.
PBMC culture medium: Human peripheral blood mononuclear cells (PBMCs): RPMI+10% FBS (Heat-inactivated)+1% P/S.
Cells were cultured at a minimum of 2.5×10^6 c/mL. • PBMCs were incubated @ 37° C./5% CO2 and allowed to rest overnight. • Following overnight recovery, a cell count/viability assessment by trypan blue exclusion was performed. Cells densities were adjusted back to 2.5×10^6 c/mL (proceed with plating only if viability >80%). • In a 6 well plate, 2.0 mL of cells were added to each well for a minimum of 5×10^6 CT per treatment condition. Compounds dilutions were prepared from 20 mM stock and were added at a final 1000× dilution (0.1% DMSO concentration). • At the end of treatment, cells were harvested and spun @ 1800 rpm for 5 min. 1×PBS wash and spun again @ 1800 rpm for 5 min. Cell pellets were frozen and stored at −80° C. until further processing. • Lysates were generated by resuspending in lysis buffer. Protein quantification was performed with a BCA kit. • 20 μg of protein were loaded per lane and run on a 26-well 4-12% Bis-Tris SDS-page gel. • Transfers were performed on PVDF membranes using the BioRad Mixed MW turbo program for 7 min. • Membranes were blocked for one hour on a rocker at room temperature. • Primary antibodies were incubated overnight at 4° C. on a rocker. • Membranes were washed 3×TBST, 5 min each. • Secondaries were added and incubated for one hour on a rocker at room temperature. • Membranes were washed 3×TBST, 5 min each and rinsed well with deionized H2O. Membranes were scanned using the Licor Odessey CLx and bands were quantified using Image Studio Lite Version 5.2 software.
PBMC results at 4 hours. The letter codes indicate the percentage of IRAK4 degraded after 4 hours: A (>50% degradation), B (>20-50% degradation) and C (<20% degradation)

| OCI-LY10 % IRAK4 Degradation (0.01 uM) (IRAK4 [1]; 4 hours, 0.01 uM compound) | OCI-LY10 % IRAK4 Degradation (0.1 uM) (IRAK4 [1]; 4 hours, 0.1 uM compound) | OCI-LY10 % IRAK4 Degradation (1 uM) (IRAK4 [1]; 4 hours, 1 uM compound) | OCI-LY10 % IRAK4 Degradation (IRAK4 [1]; IRAK4 degraded after 4 hours, western blot) | PBMC % IRAK4 Degradation (IRAK4 [2]) | SMILES |
| --- | --- | --- | --- | --- | --- |
| C (<20% degradation) | B (>20-50% degradation) | A (>50% degradation) | A (>50% degradation) |  | O=C1CCC(N2C(=O)c3cccc(NCCOCCOCCNCc4ccc(-n5cc(NC(=O)c6coc(-c7ccnc(NCC8CC8)c7)n6)c(C(F)F)n5)cc4)c3C2=O)C(=O)N1 (stereo not drawn) [I-210, 2-[2-(Cyclopropylmethylamino)-4-pyridyl]-N-[3-(difluoromethyl)-1-[4-[[2-[2-[2-[[2-(2,6-dioxo-3-piperidyl)-1,3-dioxoisoindolin-4-yl]amino]ethoxy]ethoxy]ethylamino]methyl]phenyl]pyrazol-4-yl]oxazole-4-carboxamide] |
|  |  |  |  | A (>50% degradation) | NC(=O)c1nn(-c2ccc(C(=O)NCCCCCNCCNc3cccc4c3C(=O)N(C3CCC(=O)NC3=O)C4=O)cc2)cc1NC(=O)c1coc(-c2ccnc(NCC(F)(F)F)c2)n1 (stereo not drawn) [I-172, N-[3-carbamoyl-1-[4-[5-[2-[[2-(2,6-dioxo-3-piperidyl)-1,3-dioxo-isoindolin-4-yl]amino]ethylamino]pentylcarbamoyl]phenyl]pyrazol-4-yl]-2-[2-(2,2,2-trifluoroethylamino)-4-pyridyl]oxazole-4-carboxamide] |
|  |  |  |  | A (>50% degradation) | NC(=O)c1nn(-c2ccc(C(=O)NCCOCCOCCNc3cccc4c3C(=O)N(C3CCC(=O)NC3=O)C4=O)cc2)cc1NC(=O)c1coc(-c2ccnc(NCC(F)(F)F)c2)n1 (stereo not drawn) [I-127, N-[3-carbamoyl-1-[4-[2-[2-[2-[[2-(2,6-dioxo-3-piperidyl)-1,3-dioxo-isoindolin-4-yl]amino]ethoxy]ethoxy]ethylcarbamoyl]phenyl]pyrazol-4-yl]-2-[2-(2,2,2-trifluoroethylamino)-4-pyridyl]oxazole-4-carboxamide] |
